# From ChEMBL document CHEMBL1151597, “THE ROLE OF ARGININE IN THE BINDING OF LTD4 ANTAGONISTS TO cysLT1 RECEPTORS OF GUINEA PIG LUNG” (Bioorg Med Chem Lett, 1997)
# Target: T1, Cysteinyl leukotriene receptor 1 (Cavia porcellus, UniProt Q2NNR5)
# T1 sequence (Q2NNR5 whole entry): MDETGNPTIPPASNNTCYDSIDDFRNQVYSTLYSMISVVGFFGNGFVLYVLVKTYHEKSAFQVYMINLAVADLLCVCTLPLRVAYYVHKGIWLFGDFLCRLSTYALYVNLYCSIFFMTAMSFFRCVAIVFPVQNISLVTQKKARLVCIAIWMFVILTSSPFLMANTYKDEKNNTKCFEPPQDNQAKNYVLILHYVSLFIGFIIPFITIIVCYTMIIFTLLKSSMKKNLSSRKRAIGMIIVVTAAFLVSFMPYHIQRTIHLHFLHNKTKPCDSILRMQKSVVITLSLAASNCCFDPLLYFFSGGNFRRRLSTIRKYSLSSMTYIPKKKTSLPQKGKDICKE
# Assay: Dissociation constant for CysLT1 receptor was determined by the displacement of [3H]LTD4 from guinea pig lung membranes
# Type: tissue-based, Membrane
smiles,measurement,value
COc1cc(C(=O)NS(=O)(=O)c2ccccc2)ccc1Cn1ncc2ccc(NC(=O)OC3CCCC3)cc21 [ICI-198615],Kd,0.0000301 M l-1
